The test system of test [1] is experimental autoimmune encephalomyelitis (EAE) rats. Description: Rat experimental autoimmune encephalomyelitis (EAE) model, preventive treatment. The settings on record: rats immunized with MBP. Type of test: in vivo. As to the method: A further study was carried out to study the impact of Lp-PLA2 inhibitors on modulating M1/M2 imbalance. In this study, rats were induced to develop experimental autoimmune encephalomyelitis (EAE) by immunization with myelin basic protein (MBP) antigen and treated with a known Lp-PLA2 inhibitor: 5-(9-Methoxy-4-oxo-6,7-dihydro-4H-pyrimido[6,1-a]isoquinolin-2-yl)oxy)-2-(3-(trifluoromethyl)phenoxy)benzonitrile (See PCT application no. PCT/CN2011/001597). In this preventive treatment model, the compound was administered at day 0 (day of immunization) and continued to administer until day 22. The study lasted for 25 days. Rats were subsequently monitored for symptoms of EAE. Rats were immunized with MBP to develop EAE and symptoms were monitored daily. Plasma Lp-PLA2 activity, OxLDL, and LysoPC concentration were determined at different time points through the course of EAE.

Test [2] concerns proinflammatory (M1) and anti-inflammatory (M2) markers in macrophages. Description: Ex vivo analysis of M1 and M2 markers in macrophages of EAE rats by realtime PCR. The following applies: splenic macrophages at day 13 post MBP-immunization and CNS infiltrating macrophages. The arrangement: species or system rat. The method, then:
Ex vivo analysis of proinflammatory (M1) and anti-inflammatory (M2) markers in control and compound treated EAE rats. Splenic macrophages were harvested at day 13 post MBP-immunization and assayed for expression of a variety of markers by realtime PCR. CNS infiltrating cells were harvested and macrophages were analyzed for expression of M1 and M2 markers by realtime PCR.

Test [3] addresses T1, recombinant human Lp-PLA2 (Homo sapiens, UniProt Q13093).
T1 sequence (Q13093 22-441): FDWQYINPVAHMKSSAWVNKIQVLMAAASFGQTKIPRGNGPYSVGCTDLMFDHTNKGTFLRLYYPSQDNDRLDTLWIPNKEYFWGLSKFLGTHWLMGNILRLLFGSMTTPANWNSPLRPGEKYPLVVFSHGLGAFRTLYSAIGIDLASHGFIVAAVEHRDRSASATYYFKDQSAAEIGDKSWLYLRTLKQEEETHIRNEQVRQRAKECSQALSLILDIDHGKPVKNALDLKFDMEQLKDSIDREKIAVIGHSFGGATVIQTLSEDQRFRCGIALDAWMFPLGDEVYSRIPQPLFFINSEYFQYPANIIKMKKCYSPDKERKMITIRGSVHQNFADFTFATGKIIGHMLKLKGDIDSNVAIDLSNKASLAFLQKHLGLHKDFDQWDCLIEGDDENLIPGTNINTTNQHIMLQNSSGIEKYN
Description: Recombinant human Lp-PLA2 assay (rhLp-PLA2), PED6 assay. Type of test: biochemical. The settings on record: PED6 substrate, 30 minutes preincubation; read-out: rhLp-PLA2 (pIC50) (converted). From the text: (1) Recombinant human Lp-PLA2 assays (rhLp-PLA2)-PED6 assay
N-((6-(2,4-dinitrophenyl)amino)-hexanoyl)-2-(4,4-difluoro-5,7-dimethyl-4-bora-3a,4a-diaza-s-indacene-3-pentanoyl)-1-hexadecanoyl-sn-glycero-3-phosphoethanolamine, triethylammonium salt (PED6) is a commercially available fluorescently-labeled phospholipid, which is commercially available from Invitrogene and Molecular Probes. There is a quenching para-nitro phenyl (PNP) group in the sn3 position and a Bodipy fluorescein (FL) group in the sn2 position. Upon cleavage with Lp-PLA2, the Bodipy FL group is liberated and then may result in an increase in fluorescence. Inhibitors of Lp-PLA2 therefore prevent this cleavage and no fluorescent increase is observed.
The PED6 assay was run as an unquenched 10 μL assay. The source plate containing the compounds to be tested was prepared by making 1:3 (by volume) serial dilution of the compounds within DMSO on 384-well microplate. Then, 0.01 μL of the compounds on compound source plate were transferred into 384 well Greiner 784076 (black) plates using ECHO liquid dispenser. […] The plates were read for fluorescence intensity at ex: 480/em: 540 using ViewLux microplate imager for Envision spectrofluroimeters. pIC50 data, curve and QC analysis was conducted by using XL fit module in Excel. […]

The target in the next test is T2, Lp-PLA2 in human plasma (Homo sapiens, UniProt Q13093).
T2 construct: from tissue; host or cells: pooled human plasma
T2 sequence (Q13093 22-441): T1 sequence (Q13093 22-441)
The test is described as follows: Lp-PLA2 Human Plasma assay, Thio-PAF assay. The settings on record: pooled human plasma, 2-thio-PAF substrate; read-out: pIC50 value in the Lp-PLA2 human plasma assays (converted). The format is biochemical. The text has this:
(3) Lipoprotein-associated phospholipase A2 (Lp-PLA2) Human Plasma assay-Thio-PAF assay
The human plasma assay utilizes a thioester analog of PAF (phosphatidylcholine), where hydrolysis yields to the formation of a phospholipid containing a free thiol group. The amount of thiol is quantitated continuously by reacting with CPM (7-diethylamino-3-(4′-maleimidylphenyl)-4-methylcoumarin), a maleimide which increases in fluoresence after Michael addition of thiols. This assay may detect the activity of Lp-PLA2 in human plasma, as determined by specific inhibition by Lp-PLA2 inhibitors.
The thio-PAF assay was run as a quenched 15 μL assay. Compounds source plate was prepared by making 1:3 (by volume) serial dilution of the compounds into pure DMSO on 384-well microplate. […] of compounds on compound source plate were transferred to 384 well Greiner 784076 (black) low-volume plates by ECHO liquid dispenser. 8 μL pooled human plasma, which was previously aliquoted and frozen, was added. Plates were centrifuged for 10 sec at 500 rpm. […] Plates were read at ex: 380/em: 485 using Envision microplate reader. […]

[4] abbreviates: compound administered day 0 until day 22, plasma.

Consider `COc1ccc2c(c1)CCn1c-2cc(Oc2ccc(Oc3cccc(C(F)(F)F)c3)c(C#N)c2)nc1=O` [5-(9-Methoxy-4-oxo-6,7-dihydro-4H-pyrimido[6,1-a]isoquinolin-2-yl)oxy)-2-(3-(trifluoromethyl)phenoxy)benzonitrile], for which the “clinical disease (EAE)” value in test [1] (compound administered day 0 until day 22) was “reduction in clinical disease”. Besides, in test [1] (setting [4]), the “Lp-PLA2 activity in rat EAE plasma” value is given as “decreased Lp-PLA2 activity” and the “LysoPC levels in rat EAE plasma” value was “decreased”. Also, in test [2], the M1 markers expression entry is on record as “decrease in M1 markers” and the M2 markers expression result is given as “increase in M2 markers”.

As for `O=c1nc(OCc2cc(F)c(Oc3ccnc(C(F)(F)F)c3)c(F)c2)cc2n1C[C@@H]1CCCN21` [Example 2, (S)-3-((3,5-difluoro-4-((2-(trifluoromethyl)pyridin-4-yl)oxy)benzyl)oxy)-7,8,8a, 9-tetra hydropyrrolo[1′,2′:3,4]imidazo[1,2-c]pyrimidin-1(6H)-one], the values for the IC50 (in test [3]; at Lp-PLA2 in human plasma) were 0.316 nM and 20 nM, respectively.

For `O=c1nc(OCc2cc(F)c(Oc3ccnc(C(F)(F)F)c3)c(F)c2)cc2n1C[C@H]1CCCN21` [Example 1, (R)-3-((3,5-difluoro-4-((2-(trifluoromethyl)pyridin-4-yl)oxy)benzyl)oxy)-7,8,8a, 9-tetra hydropyrrolo[1′,2′;3,4]imidazo[1,2-c]pyrimidin-1(6H)-one], the figures for the IC50 (in test [3]; at Lp-PLA2 in human plasma) were 0.158 nM and 7.94 nM, respectively.

These data come from US9783546B2, “Compounds” (GlaxoSmithKline Intellectual Property Development Limited, priority 2014, dated 2017).
